Reference: US20090005406A1, “Cancer Treatment Method” (SMITHKLINE BEECHAM CORPORATION, priority 2005, published 2009)
Marks after values point to notes of the source that are not given here.

What was measured:
[1] = Peak plasma concentration of pazopanib in the clinical study; type: in vivo; details: oral dosing, regardless of tumor type
Experimental: (§1) Sixty-three patients (pts) with cancer were treated with pazopanib three times a week, once (qd) or twice (bid) daily in a dose escalation scheme. The amount and frequency of administration of pazopanib to a representative number of those pts is summarized below in Table 1. Pts were evaluated monthly and treated until disease progression or intolerable side effects. Clinical response was determined every 8 wks. Safety and pharmacodynamics were separately assessed.
(§2) Preliminary representative patient data are shown below in Table 2.

Solid Tumors = assay: Clinical study of orally administered pazopanib in patients with solid tumors (clinical response); type: in vivo; design: key to Response: SD stable disease;; MR mixed response;; PR partial remission
Experimental: as §1, §2

[2] = patient with Adeno lung, 200-800 mg qd, oral
[3] = patient with Chondrosarcoma, 400-800 mg qd, oral
[4] = patient with Chondrosarcoma, 2000-800 mg qd, oral
[5] = patient with GIST, 600-800 mg qd, oral
[6] = patient with Hurthle Cell tumor, 50-800 mg qd, oral
[7] = patient with Leiomyosarcoma, 50-800 mg qd, oral
[8] = patient with Melanoma, 50-400 mg qd, oral
[9] = patient with Neuroendocrine tumor, 300 mg bid, oral
[10] = patient with Rectal carcinoid, 800 mg qd, oral
[11] = patient with Renal cell carcinoma, 800 mg qd, oral, patient withdrawn from study
[12] = patient with Renal cell carcinoma, 2000 mg qd, oral
[13] = patient with Renal cell carcinoma, 1400-800 mg qd, oral

Cc1ccc(Nc2nccc(N(C)c3ccc4c(C)n(C)nc4c3)n2)cc1S(N)(=O)=O [pazopanib, 5-({4-[(2,3-dimethyl-2H-indazol-6-yl)(methyl)amino]pyrimidin-2-yl}amino)-2-methylbenzenesulfonamide]
peak plasma concentrations of pazopanib in patients that demonstrated a clinical benefit [1]: ≥ 40 µM | Duration on pazopanib (weeks) (Solid Tumors; [2]): 55 weeks | Response (Solid Tumors; [2]): SD | Duration on pazopanib (weeks) (Solid Tumors; [3]): 31 weeks | Response (Solid Tumors; [3]): SD | Duration on pazopanib (weeks) (Solid Tumors; [4]): 90+ weeks | Response (Solid Tumors; [4]): SD (MR) | Duration on pazopanib (weeks) (Solid Tumors; [5]): 60 weeks | Response (Solid Tumors; [5]): SD | Duration on pazopanib (weeks) (Solid Tumors; [6]): 101 weeks | Response (Solid Tumors; [6]): SD (MR) | Duration on pazopanib (weeks) (Solid Tumors; [7]): 34 weeks | Response (Solid Tumors; [7]): SD | Duration on pazopanib (weeks) (Solid Tumors; [8]): 36 weeks | Response (Solid Tumors; [8]): SD | Duration on pazopanib (weeks) (Solid Tumors; [9]): 50+ weeks | Response (Solid Tumors; [9]): MR | Duration on pazopanib (weeks) (Solid Tumors; patient with Neuroendocrine tumor, 1000 mg qd, oral): 38 weeks | Response (Solid Tumors; patient with Neuroendocrine tumor, 1000 mg qd, oral, preliminary data not yet confirmed): PR^# | Duration on pazopanib (weeks) (Solid Tumors; [10]): 40+ weeks | Response (Solid Tumors; [10]): SD | Response (Solid Tumors; patient with Renal cell carcinoma, 300 mg bid, oral (40+ weeks patient)): MR | Response (Solid Tumors; patient with Renal cell carcinoma, 300 mg bid, oral (52+ weeks patient)): PR | Duration on pazopanib (weeks) (Solid Tumors; patient with Renal cell carcinoma, 300 mg bid, oral, response MR): 40+ weeks | Duration on pazopanib (weeks) (Solid Tumors; patient with Renal cell carcinoma, 300 mg bid, oral, response PR): 52+ weeks | Response (Solid Tumors; patient with Renal cell carcinoma, 800 mg qd, oral (12+ weeks patient)): SD | Duration on pazopanib (weeks) (Solid Tumors; [11]): 19 weeks | Response (Solid Tumors; [11]): SD (MR)* | Duration on pazopanib (weeks) (Solid Tumors; patient with Renal cell carcinoma, 800 mg qd, oral, response SD): 12+ weeks | Duration on pazopanib (weeks) (Solid Tumors; [12]): 24 weeks | Response (Solid Tumors; [12]): SD (MR) | Duration on pazopanib (weeks) (Solid Tumors; [13]): 40 weeks | Response (Solid Tumors; [13]): SD (MR)
